This is an account of results in US11491165B2 (Kinoxis Therapeutics Pty Ltd, priority 2016, dated 2022).

Data set [1] deals with T1, oxytocin receptor (OXTR), hOTR (Homo sapiens, UniProt P30559).
T1 construct: expressed in transfected cells
T1 sequence (P30559 1-389): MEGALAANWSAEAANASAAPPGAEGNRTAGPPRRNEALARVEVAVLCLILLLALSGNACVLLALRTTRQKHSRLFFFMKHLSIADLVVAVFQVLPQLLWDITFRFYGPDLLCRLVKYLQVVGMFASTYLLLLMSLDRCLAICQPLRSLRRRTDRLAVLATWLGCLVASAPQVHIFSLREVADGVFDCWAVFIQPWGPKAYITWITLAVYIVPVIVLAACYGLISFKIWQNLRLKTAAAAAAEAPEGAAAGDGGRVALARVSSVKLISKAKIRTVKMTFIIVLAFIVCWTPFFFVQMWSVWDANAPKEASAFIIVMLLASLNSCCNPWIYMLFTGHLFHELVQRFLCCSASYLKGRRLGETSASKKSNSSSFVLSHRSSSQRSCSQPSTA
Nature of the data set: Competition radioligand binding, [3H]-oxytocin, OTR-expressing HEK293 membranes. Particulars: [3H]-oxytocin 10 nM, 90 min 4 °C. As to the method: (§1) Human embryonic kidney cells (HEK-293) transfected to stably express untagged hOTR and V1aR using the Flp-In™ T-REx™ system (Life Technologies, Carlsbad, Calif. USA) were established as reported in Jorgensen et al., 2016 (the entire disclosure of which is hereby incorporated by reference). Cells were subsequently maintained in 10% DMEM containing hygromycin (80 μg/ml), penicillin (100 U/ml), streptomycin (0.1 mg/ml) and blasticidine S hydrochloride (15 μg/ml).
(§2) To induce receptor expression, cells were incubated with tetracycline (2 μg/mL) for 48 h. PBS with 5 mM EDTA (pH 7.4) was used to detach OTR and V1aR-expressing HEK293 cells from culture flasks. Harvested cells were centrifuged at 1200 g for 5 min and were resuspended in homogenization buffer (50 mM HEPES, 5 mM EDTA, 5 mM MgCl2; pH 7.4) prior to homogenization using an Ultra-Turrax homogeniser (IKA, Wilmington, N.C., USA). Homogenates were centrifuged three times for 30 min at 48.000 g, 4° C. for 30 min and membrane pellets resuspended in 50 mM Tris HCl, 5 mM MgCl2 (pH 7.4). A bicinchoninic acid assay was used according to the manufacturer's protocol (Bio-Rad, Hercules. Calif., USA) to measure final protein concentration. Membranes were stored at −80° C. until use in competition radioligand binding studies.
(§3) Reactions were incubated for 90 min at 4° C. to reach equilibrium, and terminated by rapid filtration over glass fibre filters (Whatman GF/A […]; Millipore, Darmstadt, Germany), and washing with ice-cold reaction buffer. Filters were dried, then incubated with Microscint 0 (Perkin Elmer) for 30 min before radioactivity was detected with a Microbeta2 2450 microplate-reader (Perkin Elmer). […] Specific binding in the presence of compounds was expressed as a percentage of specific binding in the presence of vehicle control. A sum-of-squares F-test was used to compare the goodness of fit of one-site, two-site and sigmoidal with variable hill slope binding models, and to calculate Ki's using Graphpad Prism (Graphpad Software, La Jolla, Calif., USA).

For data set [2], the target named is T2, vasopressin 1a receptor (V1aR) (Homo sapiens, UniProt P37288).
T2 construct: expressed in transfected cells
Nature of the data set: Competition radioligand binding, [3H]-vasopressin, V1aR-expressing HEK293 membranes. The conditions noted are these: [3H]-vasopressin 2 nM, 90 min 4 °C. The procedure:
as §1, §2, §3

Data set [3] concerns the target T1, oxytocin receptor (OXTR), hOTR. Nature of the data set: IP1 accumulation assay, OTR-expressing HEK-293 cells (agonist and antagonist assessment). Type of data set: cell-based. The conditions noted are these: for EC50 / EC50 (OXTR agonist potency, mean ± s.d.): agonist assessment; for EC50: IP1, 1 h; for IC50: antagonist assessment vs OT 30 nM (~EC70); for IC50 / EC50 (OXTR agonist potency, mean ± s.d.): IP1; for Emax: HEK293, read-out: OXTR Emax (% OXT); for OV function: ratio of OXTR functional potency to V1aR functional potency, 'OT only' = function at OXTR only. As to the method:
as §1
(§4) OTR or V1aR-expressing HEK-293 cells were seeded onto poly-L-lysine (100 μg/ml)-coated 384-well plates at a density of 8.75×10^3 cells per well. Cells were incubated in tetracycline (2 μg/mL) for 48 h to induce receptor expression. Intracellular IP1 levels induced by activation of the Gq protein coupled to the OTR and V1aR was indexed using the HTRF IP-One kit (CisBio International, Bedford, Mass., USA), according to manufacturer's protocol. For agonist assessment, cells were incubated with logarithmically-spaced concentrations of compounds (1 nM-100 μM) for 1 h prior to the addition of Ab-Cryptate and IP1-d2 for 1 h. The contents of each well were transferred to a white-walled proxy plate (Perkin Elmer) and fluorescence read using a Pherastar Microplate reader (BMG Labtech, Cary, N.C., USA). For antagonist assessment, cells were incubated an ˜EC70 concentration of OT (30 nM) or AVP (25 nM) mixed with compounds (1 nM-100 μM) or vehicle control for 1 h. IP1 levels in the presence of compounds and OT or AVP were expressed as a percentage of levels seen with OT or AVP in the presence of vehicle control. Concentration response curves for OT and AVP were determined after 5 min incubation in drug or vehicle, and the data fitted using GraphPad PRISM to a 4-parameter logistic equation of the form y=Min+(Max−Min)/(1+10^((logEC50−X)*n)) where X is drug concentration and n is the H-ill slope. Data represent the mean±s.d. of at least 3 independent experiments, each in duplicate.

Data set [4] concerns the target T2, vasopressin 1a receptor (V1aR). Briefly: IP1 accumulation assay, V1aR-expressing HEK-293 cells (agonist and antagonist assessment). Type of data set: cell-based. The conditions noted are these: for EC50: agonist assessment, IP1, 1 h; for IC50: antagonist assessment vs AVP 25 nM (~EC70), IP1. As to the method:
Cells were subsequently maintained in 10% DMEM containing hygromycin (80 μg/ml), penicillin (100 U/ml), streptomycin (0.1 mg/ml) and blasticidine S hydrochloride (15 μg/ml).
as §4, with “Cells” for “OTR or V1aR-expressing HEK-293 cells were seeded onto poly-L-lysine (100 μg/ml)-coated 384-well plates at a density of 8.75×10^3 cells per well. Cells”, “For antagonist assessment, cells were incubated an ˜EC70 concentration of OT (30 nM) or AVP (25 nM) mixed with compounds (1 nM-100 μM) or vehicle control for 1 h.” left out

Where only a bound is given, the exact number is not on record here.

T2 sequence (P37288 whole entry): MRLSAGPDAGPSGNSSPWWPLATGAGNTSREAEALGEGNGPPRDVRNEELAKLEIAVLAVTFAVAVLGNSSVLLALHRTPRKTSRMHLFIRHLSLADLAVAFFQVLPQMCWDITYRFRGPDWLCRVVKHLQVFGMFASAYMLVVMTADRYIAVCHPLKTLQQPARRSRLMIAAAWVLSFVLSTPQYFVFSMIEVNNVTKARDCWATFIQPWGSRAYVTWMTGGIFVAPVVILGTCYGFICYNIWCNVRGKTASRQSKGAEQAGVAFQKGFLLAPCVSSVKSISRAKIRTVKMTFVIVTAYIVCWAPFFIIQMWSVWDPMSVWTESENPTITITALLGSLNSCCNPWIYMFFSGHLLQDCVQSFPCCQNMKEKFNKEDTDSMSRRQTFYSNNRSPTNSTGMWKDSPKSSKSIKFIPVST

As to `Cn1ncc2c1Nc1ccccc1N(S(=O)(=O)c1ccc(Cl)cc1)C2` [WJ0633, 5-((4-Chlorophenyl)sulfonyl)-1-methyl-1,4,5,10-tetrahydrobenzo[b]pyrazolo[3,4-e][1,4]diazepine], the melting point (as a rule, the temperature of the solid-liquid transition) was in the range of 206 to 208 °C. Also, the Ki – broadly, the dissociation constant of the complex between target and ligand, obtained from inhibition or displacement – in data set [1] is above 10000 nM. In data set [2], this compound gave a Ki above 10000 nM. In data set [3], the EC50 (commonly the concentration that produces a half-maximal response) is above 10000 nM and the 50% inhibitory concentration (IC50) (usually the point on the concentration scale where inhibition reaches its midpoint) is above 10000 nM. In data set [4], this compound came in with an EC50 above 10000 nM and an IC50 above 10000 nM.

In turn, `Cn1ncc2c1Nc1ccccc1N(S(=O)(=O)c1ccc(C(F)(F)F)cc1)C2` [WJ0639, 1-Methyl-5-((4-(trifluoromethyl)phenyl)sulfonyl)-1,4,5,10-tetrahydrobenzo[b]pyrazolo[3,4-e][1,4]diazepine] showed a melting point of 203 to 205 °C. Also, the Ki in data set [1] was above 10000 nM. The Ki in data set [2] is above 10000 nM. In addition, in data set [3], the EC50 was above 10000 nM and the IC50 is above 10000 nM. In data set [4], this compound gave a 50% effective concentration (EC50) above 10000 nM and an IC50 above 10000 nM.

As for `Cc1ccc(S(=O)(=O)N2Cc3cnn(C)c3Nc3ccccc32)cc1` [WJ0641, 1-Methyl-5-tosyl-1,4,5,10-tetrahydrobenzo[b]pyrazolo[3,4-e][1,4]diazepine], the melting point fell in the range of 184 to 186 °C. Further, in data set [1], the inhibition constant Ki was above 10000 nM. The compound further showed a Ki in data set [2] above 10000 nM. In data set [3], this compound registered an EC50 above 10000 nM and an IC50 above 10000 nM. In data set [4], this compound registered an EC50 above 10000 nM and an IC50 above 10000 nM.

Regarding `Cc1ccc(C(=O)N2Cc3cnn(C)c3Nc3ccccc32)cc1` [WJ0653, (1-Methyl-4,10-dihydrobenzo[b]pyrazolo[3,4-e][1,4]diazepin-5 (1H)-yl)(p-tolyl)methanone], the melting point is 265 °C (dec.). Moreover, in data set [1], the affinity corresponds to a Ki of 149 ± 43.4 nM. The compound further returned a Ki in data set [2] of 12.4 ± 2.4 nM. For the same compound, in data set [3], the Emax (in general, the size of the effect at its maximum, as opposed to the concentration needed) was 9.54%; the “EC50 (OXTR agonist potency, mean ± s.d.)” value is listed as 238.8 ± 38.7 nM; the response was half-maximal at 85.3 ± 26.5 nM (EC50); the OV function is on record as 0.12. Moreover, in data set [4], the EC50 is above 10000 nM and the IC50 turned out to be 710 ± 267 nM.

Turning to `COc1cccc(C(=O)N2Cc3cnn(C)c3Nc3ccccc32)c1` [WJ0657, (3-Methoxyphenyl)(1-methyl-4,10-dihydrobenzo[b]pyrazolo[3,4-e][1,4]diazepin-5 (1H)-yl)methanone], the melting point is 267 to 269 °C (dec.). The compound further showed a Ki in data set [1] of 842 ± 288 nM. In data set [2], this compound returned an inhibition constant Ki of 108 ± 23.5 nM. In data set [3], the Emax came out at 4.99%; the “EC50 (OXTR agonist potency, mean ± s.d.)” value is reported as 124.9 ± 16.8 nM; the EC50 was 338 ± 76.5 nM; the OV function is on record as 0.45. For the same compound, in data set [4], the EC50 is above 10000 nM and the IC50 is 746 ± 158 nM.

For the compound `COc1ccc(C(=O)N2Cc3cnn(C)c3Nc3ccccc32)cc1` [WJ0661, (4-Methoxyphenyl)(1-methyl-4,10-dihydrobenzo[b]pyrazolo[3,4-e][1,4]diazepin-5 (1H)-yl)methanone], the melting point was 296 to 298 °C (dec.). The Ki in data set [1] is 272 ± 87.6 nM. Moreover, in data set [2], the Ki amounted to 24 ± 3.4 nM. For the same compound, in data set [3], the Emax was found to be 8.14%; the “EC50 (OXTR agonist potency, mean ± s.d.)” value was determined as 203.8 ± 54.8 nM; the EC50 is 197 ± 60.3 nM; the OV function came out at 0.43. In data set [4], the EC50 was above 10000 nM and the IC50 came out at 462 ± 136 nM.

Regarding `Cn1ncc2c1Nc1ccccc1N(C(=O)c1ccc(C(F)(F)F)cc1)C2` [WJ0677, (1-Methyl-4,10-dihydrobenzo[b]pyrazolo[3,4-e][1,4]diazepin-5 (1H)-yl)(4-(trifluoromethyl)phenyl)methanone], the melting point lay in the range of 204 to 206 °C. The same compound showed a Ki in data set [1] of 560 ± 111 nM. This compound registered an inhibition constant (Ki) in data set [2] of 96.9 ± 33.5 nM. In addition, in data set [3], the Emax came out at 7.72%; the “EC50 (OXTR agonist potency, mean ± s.d.)” value came out at 193.3 ± 11.3 nM; the EC50 came to 179 ± 37.8 nM. In data set [4], this compound yielded an EC50 above 10000 nM and an IC50 above 10000 nM.

As for `Cn1ncc2c1Nc1ccccc1N(C(=O)c1cc(F)cc(F)c1)C2` [WJ0681, (3,5-Difluorophenyl)(1-methyl-4,10-dihydrobenzo[b]pyrazolo[3,4-e][1,4]diazepin-5 (1H)-yl)methanone], the melting point is 290 to 292 °C (dec.). Further, the affinity in data set [1] corresponds to a Ki of 755 ± 164 nM. This compound also gave a Ki in data set [2] of 47.8 ± 9.4 nM. Moreover, in data set [3], the maximal response (Emax) is 10.9%; the “EC50 (OXTR agonist potency, mean ± s.d.)” value is given as 272.7 ± 69.4 nM; the EC50 is 521 ± 35.2 nM; the OV function came out at 0.24. For the same compound, in data set [4], the EC50 was above 10000 nM and the IC50 came out at 2210 ± 406 nM.

`Cc1ccc(C(=O)N2Cc3cnn(C)c3Nc3ccccc32)cc1F` [WJ0683, (3-Fluoro-4-methylphenyl)(1-methyl-4,10-dihydrobenzo[b]pyrazolo[3,4-e][1,4]diazepin-5 (1H)-yl)methanone] registered a melting point of 235 to 237 °C. In data set [1], this compound displayed a Ki of 103 ± 31 nM. In data set [2], this compound had an inhibitory constant (Ki) of 7.8 ± 0.9 nM. In addition, in data set [3], the Emax came out at 11.3%; the “EC50 (OXTR agonist potency, mean ± s.d.)” value was 283.7 ± 22.4 nM; it took 96.2 ± 22.9 nM to reach a half-maximal effect (EC50); the OV function worked out at 0.085. In data set [4], the EC50 was above 10000 nM and the IC50 stood at 1140 ± 165 nM.
